ChEMBL document CHEMBL1137819, “New 9-thiocyanatopupukeanane sesquiterpenes from the nudibranch Phyllidia varicosa and its sponge-prey Axinyssa aculeata” (J Nat Prod, 2003)
Where “and” joins values, the source holds several entries; their conditions need not be identical. Equal values may be shown once. Calls of active or inactive are those of the source. The rule behind the calls is not given here.

Assays:
Artemia salina = assay: Toxicity against Artemia salina assessed as mortality after 24 hrs; format: organism-based; conditions: in vivo
Bacillus subtilis = assay: Antimicrobial activity against Bacillus subtilis after 24 hrs; format: functional, organism-based
Candida albicans = assay: Antimicrobial activity against Candida albicans after 24 hrs; format: functional, organism-based

SMILES: CC(C)[C@@H]1C[C@]2(C)C[C@]3(C)C[C@H]1[C@H]2C[C@@H]3SC#N.CC(C)[C@@H]1C[C@]2(C)C[C@]3(C)C[C@H]1[C@H]2C[C@H]3SC#N
- Activity (Artemia salina): 90% and 35%
- LD50 (Artemia salina): 5 ppm
- Activity (Bacillus subtilis): inactive
- Activity (Candida albicans): Active
